Measured values: article PMC4077772, “Evolutionary Origin of GnIH and NPFF in Chordates: Insights from Novel Amphioxus RFamide Peptides” (PLoS ONE, 2014)
Where no end group is shown, it is not given here.

Assays:
CRE-luciferase activity = conditions: ref [41]; cited from earlier work
Text: (§1) We conducted in vitro assays to analyze whether the amphioxus PQRFa peptides have a biological activity.

cAMP levels = conditions: ref [42]; cited from earlier work
Text: as §1

amphioxus PQRFa-R1 = assay: FSK-induced CRE-luciferase reporter assay, COS-7 cells transfected with amphioxus PQRFa-R1; format: cell-based, Branchiostoma japonicum; conditions: 6 h, COS-7 cells with PQRFa-R1, tested 10^−10−10^−6 M, dual-luciferase, fold activation over basal, mean ± SEM (n=4−6), Figure 6
Experimental: COS-7 cells were maintained in Dulbecco's modified Eagle's medium (DMEM; GIBCO/Invitrogen, Carlsbad, CA) supplemented with high glucose (4.5 g/L) containing 10% fetal bovine serum (GIBCO/Invitrogen) and 1% penicillin/streptomycin antibiotics (GIBCO/Invitrogen) in a humidified 5% CO2 atmosphere at 37°C. For luciferase assay, COS-7 cells were plated in 24-well plates and grown to 70–80% confluence for 24 h before transfection. Cells were then co-transfected with 200 ng of p3XFLAG-CMV-14 expression vector (Sigma-Aldrich Co., St Louis, MO) containing the amphioxus PQRFa-R1, PQRFa-R2, or empty vector, 200 ng of the pGL4.29[luc2P/CRE/Hygro] […] Cell extracts were prepared, and luciferase activity was measured using the dual-luciferase reporter assay system (Promega). […] Statistical significance was assessed by Prism statistical software (GraphPad Software Inc., La Jolla, CA). […]
Figure 5 Effect of amphioxus PQRFa peptides on forskolin (FSK)-induced or basal CRE-luciferase activity. […] The effect of amphioxus PQRFa peptides on basal CRE-luciferase activity was also tested in COS-7 cells transfected with amphioxus PQRFa-R1 or R2.The relative luciferase activity was measured from cell lysates and expressed as fold activation over the respective basal levels. […]

pituitary = conditions: lamprey GnIH; ref [24]; cited from earlier work
Text: as §1

Q: Which results are given for “FLFQPQRFamide [NPFF, pain modulatory neuropeptide with a C-terminal Pro-Gln-Arg-Phe-NH2 motif]”?
A: effect on FSK-stimulated CRE-luciferase activity (CRE-luciferase activity): inhibited FSK-stimulated CRE-luciferase activity; effect on cAMP levels (cAMP levels): inhibited cAMP levels

Q: Which results are given for GRDQGWRPQRF-NH2 [PQRFa-3]?
A: inhibition of FSK-induced CRE-luciferase activity (dose-dependent study) (amphioxus PQRFa-R1; 10^−6 M peptide): inhibited FSK-induced CRE-luciferase activity; inhibition of FSK-induced CRE-luciferase activity (dose-dependent study) (amphioxus PQRFa-R1; 10^−7 M peptide): inhibited FSK-induced CRE-luciferase activity

Q: Which “effect on expression of GTHβ mRNA in the pituitary” value (pituitary) does the source give for “SEPFWHRTRPQRF-NH2 [Lamprey GnIH (LPXRFa peptide-2), lamprey GnIH ortholog]” here?
A: Its value is “increased the expression of GTHβ mRNA”.
